In patent US10981894B2, “Melanocortin subtype-2 receptor (MC2R) antagonists and uses thereof” (Crinetics Pharmaceuticals, Inc., priority 2018, dated 2021):

Biological target: hMC2 receptor (Homo sapiens, UniProt Q01718)
Assay: hMC2 membrane binding assay ([125I]ACTH (1-39) Tyr23, SPA)
Design: scale not given here
Settings: crude hMC2R membranes from CRE-bla-CHO-K1 cells expressing hMC2 receptor and hMRAP; [125I]ACTH (1-39) Tyr23 0.2 nM; 1.5 hours at room temperature; read-out: MC2R binding potency
Procedure, shortened: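 Ki comes from non-linear regression of SPA scintillation counts. Displacement of 0.2 nM [125I]ACTH(1-39) Tyr23 by compound dose series (usually 0–10,000 nM final) ran 1.5 h at room temperature. Membranes came from CHO-K1 CRE-bla cells stably expressing hMC2R plus hMRAP, bead-coupled in pH 7.4 buffer with 0.2% BSA.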

hMC2 receptor, sequence (Q01718 whole entry): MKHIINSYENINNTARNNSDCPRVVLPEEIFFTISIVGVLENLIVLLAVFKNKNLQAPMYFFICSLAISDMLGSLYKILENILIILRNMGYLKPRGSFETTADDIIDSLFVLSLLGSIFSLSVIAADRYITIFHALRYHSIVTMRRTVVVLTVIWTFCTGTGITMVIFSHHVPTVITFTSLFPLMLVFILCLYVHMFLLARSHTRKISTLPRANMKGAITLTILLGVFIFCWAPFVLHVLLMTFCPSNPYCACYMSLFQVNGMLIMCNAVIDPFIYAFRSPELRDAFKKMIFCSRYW
hMC2 receptor, sequence (Q8TCY5 whole entry partner): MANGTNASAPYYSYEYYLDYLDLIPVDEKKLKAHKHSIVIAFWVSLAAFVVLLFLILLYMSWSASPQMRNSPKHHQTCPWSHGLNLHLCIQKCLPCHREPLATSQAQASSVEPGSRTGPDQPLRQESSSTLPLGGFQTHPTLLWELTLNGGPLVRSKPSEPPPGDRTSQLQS

Ki	SMILES
< 10 nM	CCOc1ncccc1-c1ccc(N2CCN(C(=O)C3(C(F)(F)F)CCCC3)C[C@H]2CC)c(C(=O)N[C@@H]2CCN(C)C2)n1 [Compound 1-255, 2′-ethoxy-5-[(2R)-2-ethyl-4-[1-(trifluoromethyl)cyclopentanecarbonyl]piperazin-1-yl]-N-[(3R)-1-methylpyrrolidin-3-yl]-[2,3′-bipyridine]-6-carboxamide]
< 10 nM	CCOc1ncccc1-c1ccc(N2CCN(C(=O)C3(CC(F)F)CCC3)C[C@H]2CC)c(C(=O)N[C@@H]2CCNC2)n1 [Compound 1-328, 5-[(2R)-4-[1-(2,2-difluoroethyl)cyclobutanecarbonyl]-2-ethylpiperazin-1-yl]-2′-ethoxy-N-[(3R)-pyrrolidin-3-yl]-[2,3′-bipyridine]-6-carboxamide]
< 10 nM	CCOc1ncccc1-c1ccc(N2CCN(C(=O)N3CCC[C@H]3c3cccc(F)c3)C[C@H]2CC)c(C(=O)N[C@@H]2CCN(C)C2)n1 [Compound 1-381, 2′-ethoxy-5-[(2R)-2-ethyl-4-[(2S)-2-(3-fluorophenyl)pyrrolidine-1-carbonyl]piperazin-1-yl]-N-[(3R)-1-methylpyrrolidin-3-yl]-[2,3′-bipyridine]-6-carboxamide]
< 10 nM	CCOc1ncccc1-c1ccc(N2CCN(C(=O)C3(C(F)(F)F)CCCC3)C[C@H]2CC)c(C(=O)NC[C@@H]2CCN2C)n1 [Compound 1-331, 2′-ethoxy-5-[(2R)-2-ethyl-4-[1-(trifluoromethyl)cyclopentanecarbonyl]piperazin-1-yl]-N-{[(2S)-1-methylazetidin-2-yl]methyl}-[2,3′-bipyridine]-6-carboxamide]
< 10 nM	CCOc1ncccc1-c1ccc(N2CCN(C(=O)c3ccc(Cl)cc3C(F)(F)F)C[C@H]2CC)c(C(=O)N[C@@H]2CCNC2)c1 [Compound 1-45, 2-[(2R)-4-[4-chloro-2-(trifluoromethyl)benzoyl]-2-ethylpiperazin-1-yl]-5-(2-ethoxypyridin-3-yl)-N-[(3R)-pyrrolidin-3-yl]benzamide]
< 10 nM	CCOc1ncccc1-c1ccc(N2CCN(C(=O)N3CCc4cccc(Cl)c43)C[C@H]2CC)c(C(=O)N[C@@H]2CCNC2)n1 [Compound 1-346, 5-[(2R)-4-(7-chloro-2,3-dihydro-1H-indole-1-carbonyl)-2-ethylpiperazin-1-yl]-2′-ethoxy-N-[(3R)-pyrrolidin-3-yl]-[2,3′-bipyridine]-6-carboxamide]
< 10 nM	CCOc1ncccc1-c1ccc(N2CCN(C(=O)c3ccc(C)cc3Cl)C[C@H]2CC)c(C(=O)N[C@@H]2CCNC2)c1F [Compound 1-110, 6-[(2R)-4-(2-chloro-4-methylbenzoyl)-2-ethylpiperazin-1-yl]-3-(2-ethoxypyridin-3-yl)-2-fluoro-N-[(3R)-pyrrolidin-3-yl]benzamide]
< 10 nM	CCOc1ccccc1-c1ccc(N2CCN(C(=O)c3ccc(Cl)cc3C(F)(F)F)C[C@H]2CC)c(C(=O)N[C@@H]2CCN(C)C2)n1 [Compound 1-206, 3-[(2R)-4-[4-chloro-2-(trifluoromethyl)benzoyl]-2-ethylpiperazin-1-yl]-6-(2-ethoxyphenyl)-N-[(3R)-1-methylpyrrolidin-3-yl]pyridine-2-carboxamide]
< 10 nM	CCOc1ncccc1-c1ccc(N2CCN(C(=O)c3ccc(Cl)cc3C(F)(F)F)C[C@H]2CC)c(C(=O)NC[C@H]2CCN2C)c1 [Compound 1-228, 2-[(2R)-4-[4-chloro-2-(trifluoromethyl)benzoyl]-2-ethylpiperazin-1-yl]-5-(2-ethoxypyridin-3-yl)-N-{[(2R)-1-methylazetidin-2-yl]methyl}benzamide]
< 10 nM	CCOc1ncccc1-c1ccc(N2CCN(C(=O)c3ccc(OC)cc3C(F)(F)F)C[C@H]2CC)c(C(=O)N[C@@H]2CCNC2)c1 [Compound 1-143, 5-(2-ethoxypyridin-3-yl)-2-[(2R)-2-ethyl-4-[4-methoxy-2-(trifluoromethyl)benzoyl]piperazin-1-yl]-N-[(3R)-pyrrolidin-3-yl]benzamide]
< 10 nM	CCOc1ncccc1-c1ccc(N2CCN(C(=O)c3ccc(OC)nc3C(F)(F)F)C[C@H]2CC)c(C(=O)N[C@@H]2CCNC2)n1 [Compound 1-240, 2′-ethoxy-5-[(2R)-2-ethyl-4-[6-methoxy-2-(trifluoromethyl)pyridine-3-carbonyl]piperazin-1-yl]-N-[(3R)-pyrrolidin-3-yl]-[2,3′-bipyridine]-6-carboxamide]
< 10 nM	CCOc1ncccc1-c1ccc(N2CCN(C(=O)c3ccc(Cl)cc3C(F)F)C[C@H]2CC)c(C(=O)NCCNC)c1F [Compound 1-183, 6-[(2R)-4-[4-chloro-2-(difluoromethyl)benzoyl]-2-ethylpiperazin-1-yl]-3-(2-ethoxypyridin-3-yl)-2-fluoro-N-[2-(methylamino)ethyl]benzamide]
< 10 nM	CCOc1ncccc1-c1ccc(N2CCN(C(=O)c3ccc(Cl)cc3C(F)(F)F)C[C@H]2CC)c(C(=O)N[C@@H]2CNC[C@H]2F)n1 [Compound 1-276, 5-[(2R)-4-[4-chloro-2-(trifluoromethyl)benzoyl]-2-ethylpiperazin-1-yl]-2′-ethoxy-N-[(3R,4R)-4-fluoropyrrolidin-3-yl]-[2,3′-bipyridine]-6-carboxamide]
< 10 nM	CCOc1ncccc1-c1ccc(N2CCN(C(=O)c3ccc(Cl)cc3C(F)(F)F)C[C@H]2CC)c(C(=O)N[C@@H]2CCCNC2)c1 [Compound 1-99, 2-[(2R)-4-[4-chloro-2-(trifluoromethyl)benzoyl]-2-ethylpiperazin-1-yl]-5-(2-ethoxypyridin-3-yl)-N-[(3R)-piperidin-3-yl]benzamide]
< 10 nM	CCOc1ncccc1-c1ccc(N2CCN(C(=O)c3ccc(Cl)cc3C(F)(F)F)C[C@H]2CC)c(C(=O)NC2CNC2)c1F [Compound 1-198, N-(azetidin-3-yl)-6-[(2R)-4-[4-chloro-2-(trifluoromethyl)benzoyl]-2-ethylpiperazin-1-yl]-3-(2-ethoxypyridin-3-yl)-2-fluorobenzamide]
< 10 nM	CCOc1ncccc1-c1ccc(N2CCN(C(=O)c3ccc(F)cc3N3CC[C@H](NC)C3)C[C@H]2CC)c(C(=O)N[C@@H]2CCNC2)c1 [Compound 1-101, 5-(2-ethoxypyridin-3-yl)-2-[(2R)-2-ethyl-4-{4-fluoro-2-[(3S)-3-(methylamino)pyrrolidin-1-yl]benzoyl}piperazin-1-yl]-N-[(3R)-pyrrolidin-3-yl]benzamide]
< 10 nM	CCOc1ncccc1-c1ccc(N2CCN(C(=O)c3ccc(Cl)cc3C(F)(F)F)C[C@H]2CC)c(C(=O)NC[C@@H]2CNCCO2)c1 [Compound 1-109, 2-[(2R)-4-[4-chloro-2-(trifluoromethyl)benzoyl]-2-ethylpiperazin-1-yl]-5-(2-ethoxypyridin-3-yl)-N-{[(2S)-morpholin-2-yl]methyl}benzamide]
< 10 nM	CCOc1ncccc1-c1ccc(N2CCN(C(=O)c3ccc(F)cc3C(F)F)C[C@H]2CC)c(C(=O)N[C@@H]2CCNC2)n1 [Compound 1-278, 5-[(2R)-4-[2-(difluoromethyl)-4-fluorobenzoyl]-2-ethylpiperazin-1-yl]-2′-ethoxy-N-[(3R)-pyrrolidin-3-yl]-[2,3′-bipyridine]-6-carboxamide]
10 to 100 nM	CC[C@@H]1CN(C(=O)c2ccc(C(F)(F)F)cc2Cl)CCN1c1ccc(-c2ccccc2F)cc1C(=O)NCCN [Compound 1-4, N-(2-aminoethyl)-4-[(2R)-4-[2-chloro-4-(trifluoromethyl)benzoyl]-2-ethylpiperazin-1-yl]-2′-fluoro-[1,1′-biphenyl]-3-carboxamide]
< 10 nM	CCOc1ncccc1-c1ccc(N2CCN(C(=O)c3ccc(F)cc3C(F)(F)F)C[C@H]2CC)c(C(=O)NCCc2ncc[nH]2)n1 [Compound 1-224, 2′-ethoxy-5-[(2R)-2-ethyl-4-[4-fluoro-2-(trifluoromethyl)benzoyl]piperazin-1-yl]-N-[2-(1H-imidazol-2-yl)ethyl]-[2,3′-bipyridine]-6-carboxamide]
< 10 nM	CCOc1ccccc1-c1ccc(N2CCN(C(=O)C3(C(F)(F)F)CCCC3)C[C@H]2CC)c(C(=O)NC2CN(C)C2)n1 [Compound 1-399, 6-(2-ethoxyphenyl)-3-[(2R)-2-ethyl-4-[1-(trifluoromethyl)cyclopentanecarbonyl]piperazin-1-yl]-N-(1-methylazetidin-3-yl)pyridine-2-carboxamide]
< 10 nM	CCOc1ncccc1-c1ccc(N2CCN(C(=O)C34CCC(C(F)(F)F)(CC3)C4)C[C@H]2CC)c(C(=O)N[C@@H]2CCN(C)C2)n1 [Compound 1-385, 2′-ethoxy-5-[(2R)-2-ethyl-4-[4-(trifluoromethyl)bicyclo[2.2.1]heptane-1-carbonyl]piperazin-1-yl]-N-[(3R)-1-methylpyrrolidin-3-yl]-[2,3′-bipyridine]-6-carboxamide]
< 10 nM	CCOc1ncccc1-c1ccc(N2CCN(C(=O)c3ccc(Cl)cc3C(F)(F)F)C[C@H]2CC)c(C(=O)NCCc2ncc[nH]2)c1F [Compound 1-116, 6-[(2R)-4-[4-chloro-2-(trifluoromethyl)benzoyl]-2-ethylpiperazin-1-yl]-3-(2-ethoxypyridin-3-yl)-2-fluoro-N-[2-(1H-imidazol-2-yl)ethyl]benzamide]
< 10 nM	CCOc1ncccc1-c1ccc(N2CCN(C(=O)c3ccc(OC)cc3C(F)(F)F)C[C@H]2CC)c(C(=O)NCCN(C)C)c1F [Compound 1-168, N-[2-(dimethylamino)ethyl]-3-(2-ethoxypyridin-3-yl)-6-[(2R)-2-ethyl-4-[4-methoxy-2-(trifluoromethyl)benzoyl]piperazin-1-yl]-2-fluorobenzamide]
< 10 nM	CCOc1ncccc1-c1ccc(N2CCN(C(=O)c3ccc(OC)nc3C(F)(F)F)C[C@H]2CC)c(C(=O)N[C@@H]2CCNC2)c1F [Compound 1-271, 3-(2-ethoxypyridin-3-yl)-6-[(2R)-2-ethyl-4-[6-methoxy-2-(trifluoromethyl)pyridine-3-carbonyl]piperazin-1-yl]-2-fluoro-N-[(3R)-pyrrolidin-3-yl]benzamide]
